This note sets out measurements from patent publication US9682977B2, “Bicyclic heteroaryl indole analogues useful as ROR gamma modulators” (Glenmark Pharmaceuticals S.A., priority 2013, dated 2017).

For this assay, the target named is T1, GST-tagged ROR gamma ligand binding domain (LBD) (Homo sapiens, UniProt P51449).
T1 construct: purchased Invitrogen
T1 sequence (P51449 269-508 limits assumed): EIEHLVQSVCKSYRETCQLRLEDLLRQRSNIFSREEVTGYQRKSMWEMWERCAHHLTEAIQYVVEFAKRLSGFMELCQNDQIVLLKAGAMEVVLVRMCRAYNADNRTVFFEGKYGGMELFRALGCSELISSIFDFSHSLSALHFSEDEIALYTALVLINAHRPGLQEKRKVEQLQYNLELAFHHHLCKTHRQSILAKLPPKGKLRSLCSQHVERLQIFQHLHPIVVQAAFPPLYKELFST
The assay is described as follows: TR-FRET assay for ROR gamma (Lantha Screen, co-activator peptide recruitment). Type of assay: biochemical. As to conditions: for inhibition at 1 µM: read-out: % inhibition at 1 μM; for inhibition at 10 µM: read-out: % inhibition at 10 μM; for IC50: class symbols, from dose response curve, read-out: IC50 value.

The mark [1] stands for this setting: compound concentration 1 μM, TR-FRET ratio 520/495, percent of control.
Where [2] appears, read: compound concentration 10 μM, TR-FRET ratio 520/495, percent of control.

Like-named read-outs stand apart in the source and are kept apart here. Where only a bound is given, the exact number is not on record here.

Turning to `CCCCOC(=O)c1ccc(-n2nc(Oc3c(Cl)cccc3C(F)(F)F)c3ccccc32)c(F)c1` [Example 47, Butyl 4-{3-[2-chloro-6-(trifluoromethyl)phenoxy]-1H-indazol-1-yl}-3-fluorobenzoate], under setting [1], the inhibition at 1 µM amounted to 52%. The inhibition at 10 µM under setting [2] was found to be 91.9%.

Turning to `CCOC(=O)c1ccc(-n2cc(C(=O)c3c(Cl)cccc3Cl)c3cccc(F)c32)c(F)c1` [Example 42, Ethyl 4-[3-(2,6-dichloro-benzoyl)-7-fluoro-1H-indol-1-yl]-3-fluorobenzoate], the inhibition at 1 µM was determined as 0.61%.

In the case of `O=C(O)c1ccc(-n2nc(Oc3ccccc3)c3ccccc32)cc1` [Example 4, 4-(3-Phenoxy-1H-indazol-1-yl)benzoic acid], the inhibition at 1 µM under setting [1] was determined as 31.2%. The inhibition at 10 µM under setting [2] amounted to 37%.

With `CN(C)C(=O)c1ccc2c(C(=O)c3c(Cl)cccc3Cl)cn(-c3ccc(C(=O)O)cc3F)c2c1` [Example 26, 4-[3-(2,6-Dichloro-benzoyl)-6-dimethylcarbamoyl-indol-1-yl]-3-fluoro-benzoic acid], the inhibition at 1 µM is 31.3% and the inhibition at 10 µM stood at 33.7%.

On to `O=C(O)c1ccc(-n2nc(Oc3c(Cl)cccc3C(F)F)c3ccccc32)c(F)c1` [Example 10, 4-{3-[2-Chloro-6-(difluoromethyl)phenoxy]-1H-indazol-1-yl}-3-fluorobenzoic acid], for which the IC50 is under 50 nM. For the same compound, the inhibition at 1 µM under setting [1] was 100%. Also, under setting [2], the inhibition at 10 µM was 100%.

For `O=C(O)c1ccc(-n2nc(Oc3ccccc3C(F)(F)F)c3ccccc32)c(F)c1` [Example 8, 3-Fluoro-4-{3-[2-(trifluoromethyl)phenoxy]-1H-indazol-1-yl}benzoic acid], the IC50 was under 50 nM. The inhibition at 1 µM under setting [1] is 96.4%. Besides, the inhibition at 10 µM under setting [2] worked out at 98.2%.

With `Cc1ccccc1Oc1nn(-c2ccc(C(=O)O)cc2)c2ccccc12` [Example 1, 4-[3-(2-Methylphenoxy)-1H-indazol-1-yl]benzoic acid], the IC50 is under 50 nM. Also, the inhibition at 1 µM under setting [1] worked out at 90%. Also, under setting [2], the inhibition at 10 µM came to 96.3%.

In the case of `O=C(O)c1ccc(-n2cc(C(=O)c3c(Cl)cccc3Cl)c3cccnc32)c(F)c1` [Example 27, 4-[3-(2,6-Dichlorobenzoyl)-1H-pyrrolo[2,3-b]pyridin-1-yl]-3-fluorobenzoic acid], the IC50 is under 50 nM. Further, under setting [1], the inhibition at 1 µM stood at 95.6%. For the same compound, under setting [2], the inhibition at 10 µM is 97.9%.

Regarding `O=C(O)c1ccc(-n2nc(Oc3ccc(Cl)cc3C(F)(F)F)c3ccccc32)c(F)c1` [Example 9, 4-{3-[4-Chloro-2-(trifluoromethyl)phenoxy]-1H-indazol-1-yl}-3-fluorobenzoic acid], the IC50 is over 100 nM. Further, the inhibition at 1 µM under setting [1] amounted to 86.5%. Also, the inhibition at 10 µM under setting [2] was found to be 96.9%.

Take `CCCOC(=O)c1ccc(-n2nc(Oc3c(Cl)cccc3C(F)(F)F)c3ccccc32)c(F)c1` [Example 46, Propyl 4-{3-[2-chloro-6-(trifluoromethyl)phenoxy]-1H-indazol-1-yl}-3-fluorobenzoate]: the inhibition at 1 µM under setting [1] was found to be 10.9%. Further, under setting [2], the inhibition at 10 µM is 28.5%.

Take `O=C(O)c1ccc(-n2nc(Oc3ccccc3C(F)(F)F)c3ccccc32)cc1` [Example 2, 4-{3-[2-(Trifluoromethyl)phenoxy]-1H-indazol-1-yl}benzoic acid]: the IC50 is under 50 nM. Besides, the inhibition at 1 µM under setting [1] was 96.9%. The inhibition at 10 µM under setting [2] came out at 98.4%.

In the case of `CCCCOC(=O)c1ccc(-n2cc(C(=O)c3c(Cl)cccc3Cl)c3ccccc32)c(F)c1` [Example 41, Butyl 4-{3-[(2,6-dichlorophenyl)carbonyl]-1H-indol-1-yl}-3-fluorobenzoate], the inhibition at 1 µM amounted to 5.13%.
